{"source": "patent US20250339426A1", "about": "“GCN2 MODULATOR FOR TREATING CANCER” (HIBERCELL, INC., priority 2022, published 2025)", "key": {"[1]": {"test_system": "ASNS, PHGDH, PUMA, PSAT1, S100A8/A9 in MV4-11 tumors", "experiment": "Tumor IHC, MV4-11 tumors (venetoclax combination study)", "assay_type": "in vivo, BALB/c nude mice", "conditions": "end-of-study tumors", "experimental": "Immunohistochemical analysis was carried out on tumors that were collected at the end of the study described in Example 6. Formalin-fixed paraffin-embedded samples were sectioned at 5 μm thickness and mounted on Superfrost Plus microscope slides (Fisher Scientific). All immunohistochemical (IHC) staining was performed on Bond Rx auto-stainer (Leica Biosystems) using the conventional TSA-amplified detection system. Primary antibodies used were as follows: a-ASNS (Cell Signaling Technology #92479), a-PUMA (Cell Signaling Technology #98672), a-PSAT1 (Proteintech #10501-1-AP), a-PHGDH (Proteintech #14719-1-AP), HIF-1a-Novus Biologicals NB 100-479, HIF-2a-Novus Biologicals NB100-122SS, and GLUT-1-EMB Biosciences 07-1401. TSA-conjugated Alexa488, Alexa 568 and Alexa647 fluorophores from Invitrogen (#B40953, #B40956, and #B40958) were used at 1:500 dilution. Slides were counterstained with DAPI and cover slipped using Mowiol anti-fade mounting media (Sigma #D2522).\nSlides were imaged with Aperio Versa 200 (Leica Biosystems) whole-slide scanner using 10×/0.32NA objective, and the data were analyzed using custom-written macros in ImageJ/FIJI (NIH). Briefly, 150 μm of outer edges of the tumor sections and necrotic regions (determined by lack of 4′,6-diamidino-2-phenylindole (DAPI) signal or presence of condensed DNA) were eliminated from the analysis. Gaussian-blurred DAPI channel was used to measure the area of the tumor tissue. Scans of immune-staining were processed to remove background, then total intensity value above appropriate threshold levels was measured and normalized to tissue area. All graphing and statistics (one-way ANOVA and pair-wise comparisons) were performed using Prism GraphPad.\nSlides were deparaffinized, rehydrated and heat mediated antigen retrieval was conducted with AR6 buffer (Akoya). Slides were blocked with Roche diagnostics antibody diluent (Fisher) and stained with primary antibodies for 1 hr at 110 rpm. After washing, horseradish peroxidase (HRP)-conjugated secondary antibodies were added for 10 mins at 110 rpm. After washing, OPAL detection dye (Akoya) was added for a static 10 min incubation. Antigen retrieval was performed post OPAL staining, followed by DAPI staining and slide covering. Multispectral images were captured on the Polaris imaging system (Akoya) and spectral unmixing, cell segmentation and phenotyping was performed using Inform Tissue Finder software (Akoya). Imaging data was converted into .csv files and imported into Flowjo for analysis of S100A8/A9 percent positive cells. Primary antibodies used were rabbit anti-human/mouse S100A8/A9 (Clone RM1038, Abcam ab288715, paired with Opal 570).\nImmunohistochemical analysis was performed on the tumors according to the procedures described in Example 7."}, "ATF4, ASNS in FaDu cells": {"test_system": "ATF4, ASNS in FaDu cells", "experiment": "Jess protein analysis, FaDu cells", "assay_type": "cell-based, human", "conditions": "0.01 and 0.1 μM, 72 hr, sgControl vs sgGCN2", "experimental": "Cell lysates were obtained from FaDu sgControl or sgGCN2 cells treated with HC-7366 (0, 0.01, 0.1 and 1 μM) for 72 hr. Ice cold 1x radioimmunoprecipitation assay (RIPA) lysis buffer supplemented with protease and phosphatase inhibitors was added to the cell pellets, on ice. After 30 min on ice the cell lysates were centrifuged at 4° C., 12,000 rpm for 15 minutes and the supernatant was collected. Protein concentration was determined using BCA kit. The cell lysates were mixed with 5×SDS loading buffer and denatured at 95° C. for 5 minutes. 1 μg lysate was run on Jess capillary and results were analyzed by compass simple western software. The following primary antibodies were used: p-GCN2 T899 (Abcam #ab75836), GCN2 (Cell Signaling #3302), ATF4 (Cell Signaling #11815) and ASNS (Proteintech #14681). Anti-rabbit secondary antibody was from ProteinSimple #042-206."}, "CTG-2227": {"test_system": "CTG-2227", "experiment": "Ex vivo AML PDX cell viability (Cell Titer Glo)", "assay_type": "cell-based", "conditions": "Homo sapiens, 144 h; PDX model CTG-2227, 6 days; read-out: HC-7366 EC50", "experimental": "(§1) . Cell viability was assayed after treating PDX models with DMSO or HC-7366 for 6 days using a plate-based luminescence assay (Cell Titer Glo). […]\n(§2) EC50 values were calculated to the bottom of the curve and are provided below. Viability curves are provided for the models CTG-2229 (FIG. 81), CTG-3680 (FIG. 82), CTG-3667 (FIG. 83), CTG-2456 (FIG. 84), CTG-2457 (FIG. 85), and CTG-2454 (FIG. 86)."}, "CTG-2453": {"test_system": "CTG-2453", "experiment": "Ex vivo AML PDX cell viability (Cell Titer Glo)", "assay_type": "cell-based", "conditions": "Homo sapiens, 144 h; PDX model CTG-2453, 6 days; read-out: HC-7366 EC50", "experimental": "as §1, §2"}, "CTG-2775": {"test_system": "CTG-2775", "experiment": "Ex vivo AML PDX cell viability (Cell Titer Glo)", "assay_type": "cell-based", "conditions": "Homo sapiens, 144 h; PDX model CTG-2775, 6 days; read-out: HC-7366 EC50", "experimental": "as §1, §2"}, "CTG-3440": {"test_system": "CTG-3440", "experiment": "Ex vivo AML PDX cell viability (Cell Titer Glo)", "assay_type": "cell-based", "conditions": "Homo sapiens, 144 h; PDX model CTG-3440, 6 days; read-out: HC-7366 EC50", "experimental": "as §1, §2"}, "CTG-3679": {"test_system": "CTG-3679", "experiment": "Ex vivo AML PDX cell viability (Cell Titer Glo)", "assay_type": "cell-based", "conditions": "Homo sapiens, 144 h; PDX model CTG-3679, 6 days; read-out: HC-7366 EC50", "experimental": "as §1, §2"}, "[2]": {"test_system": "human AML cells of model CTG-2229", "experiment": "AML PDX in vivo study, flow cytometry of blood, spleen, bone marrow", "design": "species or system NCG mice", "conditions": "1 mg/kg PO/BID×28, all tissues", "experimental": "Sub-lethally irradiated NCG mice were inoculated with 2×10^6 human AML cells of model CTG-2229. Mice were monitored post AML inoculation to assess human AML engraftment using huCD45/muCD45/huCD33/huCD3 antibodies and BD TruCount™ beads. When individual animals had ≥20% live huCD45 cells in the bone marrow, they were randomized to treatment cohorts. For the efficacy study, animals were administered (n=13/group) with vehicle control, HC-7366 at 1 mg/kg, 10 mg/kg or 30 mg/kg PO/BID×28, or Venetoclax at 100 mg/kg PO/QD×28. Terminal blood, spleen, and bone marrow samples were collected for flow cytometry (FIG. 87). Tolerability was assessed by body weight loss, lethality, and clinical signs of adverse treatment-related side effects. Body weights were measured twice weekly."}, "[3]": {"conditions": "HC-7366 3 mg/kg, alone or with venetoclax"}}, "data": [{"smiles": "CNC(=O)c1ncn2cc(-c3c(F)ccc(NS(=O)(=O)c4cc(Cl)cnc4OC)c3F)ncc12", "note": "[HC-7366, 6-(3-((5-chloro-2-methoxypyridine)-3-sulfonamido)-2,6-difluorophenyl)-N-methylimidazo[1,5-a]pyrazine-1-carboxamide]", "values": [{"measurement": "PSAT1 levels", "setting": "[1]", "value": "did not change"}, {"measurement": "ASNS by IHC", "setting": "[1]; [3]", "value": "potent activation"}, {"measurement": "PHGDH by IHC", "setting": "[1]; [3]", "value": "potent activation"}, {"measurement": "PUMA by IHC", "setting": "[1]; [3]", "value": "potent activation"}, {"measurement": "S100A8/A9 levels", "setting": "[1]; single agents and combination", "value": "significantly reduced"}, {"measurement": "levels of ATF4 and ASNS", "setting": "ATF4, ASNS in FaDu cells", "value": "GCN2-dependent increase"}, {"measurement": "EC50", "setting": "CTG-2227", "value": 39.9, "unit": "µM"}, {"measurement": "EC50", "setting": "CTG-2453", "value": 180, "unit": "µM"}, {"measurement": "EC50", "setting": "CTG-2775", "value": 43.4, "unit": "µM"}, {"measurement": "EC50", "setting": "CTG-3440", "value": 55.2, "unit": "µM"}, {"measurement": "EC50", "setting": "CTG-3679", "value": 107, "unit": "µM"}, {"measurement": "myeloid restricted precursor (CD34+CD33+) and mature myeloid cells (CD34−CD33+)", "setting": "[2]", "value": "significantly decreased"}]}]}
